Laboratory results published in patent USRE42890E1, “Furazanobenzimidazoles” (Basilea Pharmaceutica AG, priority 2003, dated 2011).

How the values were obtained:
MRC5 = test: MTS proliferation assay, MRC5; type: cell-based; conditions: MRC5, 72 h incubation; read-out: MTS proliferation assay IC 50 MRC5
Method in brief: (§1)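 Viability after 72 h compound exposure at 10, 3, 1 and 0.3 μM final was scored by MTS absorbance (492 nm, 3 h reagent incubation), with cells kept in RPMI-1640 containing 5% or 10% fetal calf serum.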

Jily = test: MTS proliferation assay, Jily; type: cell-based; conditions: 72 h incubation, read-out: MTS proliferation assay IC 50 Jily
Method in brief: as §1

HeLa = test: MTS proliferation assay, HeLa; type: cell-based, human; conditions: 72 h incubation, read-out: MTS proliferation assay IC 50 HeLa
Method in brief: (§2)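 Proliferation: RPMI-1640/FCS complete medium, 37 °C, 7.5% CO2, cells plated 24 h pre-dose; compounds at 10, 3, 1, 0.3 μM final for 72 h; MTS, 492 nm.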

Jurkat = test: MTS proliferation assay, Jurkat; type: cell-based, human; conditions: 72 h incubation, read-out: MTS proliferation assay IC 50 Jurkat
Method in brief: as §2

[1] = system: adherent cells or suspension cells; test: Hoechst 33342 nuclear staining (fraction of apoptotic nuclei); type: cell-based; set-up: key: 0 relating to no activity; 1 relating to weak activity comprising less than 70% of the cells; score 2 relating to strong activity comprising more than 70% of the cells
HT1080 = test: MTS proliferation assay, HT1080; type: cell-based, human; conditions: HT1080, 72 h incubation; read-out: MTS proliferation assay IC 50 HT1080
Method in brief: as §2

| IC50 (HeLa) | IC50 (Jurkat) | IC50 (HT1080) | Compound | IC50 (MRC5) | IC50 (Jily) | Hoechst 33342 nuclear staining score ([1]; H460, conc 0.01 μm) | Hoechst 33342 nuclear staining score ([1]; H460, conc 0.1 μm) | Hoechst 33342 nuclear staining score ([1]; H460, conc 1 μm) | Hoechst 33342 nuclear staining score ([1]; HeLa, conc 0.01 μm) | Hoechst 33342 nuclear staining score ([1]; HeLa, conc 0.1 μm) | Hoechst 33342 nuclear staining score ([1]; HeLa, conc 1 μm) | Hoechst 33342 nuclear staining score ([1]; Jily, conc 0.01 μm) | Hoechst 33342 nuclear staining score ([1]; Jily, conc 0.1 μm) | Hoechst 33342 nuclear staining score ([1]; Jily, conc 1 μm) | Hoechst 33342 nuclear staining score ([1]; Jurkat, conc 0.01 μm) | Hoechst 33342 nuclear staining score ([1]; Jurkat, conc 0.1 μm) | Hoechst 33342 nuclear staining score ([1]; Jurkat, conc 1 μm) | Hoechst 33342 nuclear staining score ([1]; MRC5, conc 0.01 μm) | Hoechst 33342 nuclear staining score ([1]; MRC5, conc 0.1 μm) | Hoechst 33342 nuclear staining score ([1]; MRC5, conc 1 μm) | further results |
| --- | --- | --- | --- | --- | --- | --- | --- | --- | --- | --- | --- | --- | --- | --- | --- | --- | --- | --- | --- | --- | --- |
| > 1000 nM | > 1000 nM | > 1000 nM | CC(C)n1c(-c2nonc2N)nc2ccccc21 [A, reference compound] | > 1000 nM | > 1000 nM |  |  |  |  |  |  |  |  |  |  |  |  |  |  |  | Hoechst 33342 nuclear staining score ([1]; H460, conc 3 μm): 0; Hoechst 33342 nuclear staining score ([1]; H460, conc 10 μm): 0; Hoechst 33342 nuclear staining score ([1]; H460, conc 30 μm): 0; Hoechst 33342 nuclear staining score ([1]; HeLa, conc 3 μm): 0; Hoechst 33342 nuclear staining score ([1]; HeLa, conc 10 μm): 0; Hoechst 33342 nuclear staining score ([1]; HeLa, conc 30 μm): 0; Hoechst 33342 nuclear staining score ([1]; Jily, conc 3 μm): 0; Hoechst 33342 nuclear staining score ([1]; Jily, conc 10 μm): 0; Hoechst 33342 nuclear staining score ([1]; Jily, conc 30 μm): 0; Hoechst 33342 nuclear staining score ([1]; Jurkat, conc 3 μm): 0; Hoechst 33342 nuclear staining score ([1]; Jurkat, conc 10 μm): 0; Hoechst 33342 nuclear staining score ([1]; Jurkat, conc 30 μm): 0; Hoechst 33342 nuclear staining score ([1]; MRC5, conc 3 μm): 0; Hoechst 33342 nuclear staining score ([1]; MRC5, conc 10 μm): 0; Hoechst 33342 nuclear staining score ([1]; MRC5, conc 30 μm): 0; Hoechst 33342 nuclear staining score ([1]; PBLs, conc 3 μm): 0; Hoechst 33342 nuclear staining score ([1]; PBLs, conc 10 μm): 0; Hoechst 33342 nuclear staining score ([1]; PBLs, conc 30 μm): 0 |
| 10 to 100 nM | 10 to 100 nM | 100 to 1000 nM | Nc1nonc1-c1nc2ccccc2n1CC(=O)c1cccc(Cl)c1 [Example 35] | 100 to 1000 nM | 10 to 100 nM | 0 | 0 | 2 (score 2 relating to strong activity comprising more than 70% of the cells) | 0 | 0 | 2 (score 2 relating to strong activity comprising more than 70% of the cells) | 0 | 1 (1 relating to weak activity comprising less than 70% of the cells) | 2 (score 2 relating to strong activity comprising more than 70% of the cells) | 0 | 2 (score 2 relating to strong activity comprising more than 70% of the cells) | 2 (score 2 relating to strong activity comprising more than 70% of the cells) | 0 | 2 (score 2 relating to strong activity comprising more than 70% of the cells) | 2 (score 2 relating to strong activity comprising more than 70% of the cells) | Hoechst 33342 nuclear staining score ([1]; PBLs, conc 0.01 μm): 0; Hoechst 33342 nuclear staining score ([1]; PBLs, conc 0.1 μm): 0; Hoechst 33342 nuclear staining score ([1]; PBLs, conc 1 μm): 0 |
| 100 to 1000 nM | 100 to 1000 nM | 100 to 1000 nM | Nc1nonc1-c1nc2ccccc2n1COc1ccc(CO)cc1 [Example 97] | 100 to 1000 nM | 100 to 1000 nM | 0 | 0 | 2 (score 2 relating to strong activity comprising more than 70% of the cells) | 0 | 0 | 2 (score 2 relating to strong activity comprising more than 70% of the cells) | 0 | 0 | 2 (score 2 relating to strong activity comprising more than 70% of the cells) | 0 | 0 | 2 (score 2 relating to strong activity comprising more than 70% of the cells) | 0 | 0 | 0 | Hoechst 33342 nuclear staining score ([1]; PBLs, conc 0.01 μm): 0; Hoechst 33342 nuclear staining score ([1]; PBLs, conc 0.1 μm): 0; Hoechst 33342 nuclear staining score ([1]; PBLs, conc 1 μm): 0 |

Second part, the compound before the results:

| Compound | IC50 (HeLa) | IC50 (Jurkat) | IC50 (HT1080) | IC50 (MRC5) | IC50 (Jily) | Hoechst 33342 nuclear staining score ([1]; H460, conc 0.01 μm) | Hoechst 33342 nuclear staining score ([1]; H460, conc 0.1 μm) | Hoechst 33342 nuclear staining score ([1]; H460, conc 1 μm) | Hoechst 33342 nuclear staining score ([1]; HeLa, conc 0.01 μm) | Hoechst 33342 nuclear staining score ([1]; HeLa, conc 0.1 μm) | Hoechst 33342 nuclear staining score ([1]; HeLa, conc 1 μm) | Hoechst 33342 nuclear staining score ([1]; Jily, conc 0.01 μm) | Hoechst 33342 nuclear staining score ([1]; Jily, conc 0.1 μm) | Hoechst 33342 nuclear staining score ([1]; Jily, conc 1 μm) | Hoechst 33342 nuclear staining score ([1]; Jurkat, conc 0.01 μm) | Hoechst 33342 nuclear staining score ([1]; Jurkat, conc 0.1 μm) | Hoechst 33342 nuclear staining score ([1]; Jurkat, conc 1 μm) | Hoechst 33342 nuclear staining score ([1]; MRC5, conc 0.01 μm) | Hoechst 33342 nuclear staining score ([1]; MRC5, conc 0.1 μm) | Hoechst 33342 nuclear staining score ([1]; MRC5, conc 1 μm) | further results |
| --- | --- | --- | --- | --- | --- | --- | --- | --- | --- | --- | --- | --- | --- | --- | --- | --- | --- | --- | --- | --- | --- |
| Nc1nonc1-c1nc2ccccc2n1CC(=O)c1ccc2ccccc2c1 [Example 42] | 10 to 100 nM | 10 to 100 nM | 10 to 100 nM | 100 to 1000 nM | 10 to 100 nM | 0 | 2 (score 2 relating to strong activity comprising more than 70% of the cells) | 2 (score 2 relating to strong activity comprising more than 70% of the cells) | 0 | 1 (1 relating to weak activity comprising less than 70% of the cells) | 2 (score 2 relating to strong activity comprising more than 70% of the cells) | 0 | 2 (score 2 relating to strong activity comprising more than 70% of the cells) | 2 (score 2 relating to strong activity comprising more than 70% of the cells) | 0 | 2 (score 2 relating to strong activity comprising more than 70% of the cells) | 2 (score 2 relating to strong activity comprising more than 70% of the cells) | 0 | 2 (score 2 relating to strong activity comprising more than 70% of the cells) | 2 (score 2 relating to strong activity comprising more than 70% of the cells) | Hoechst 33342 nuclear staining score ([1]; PBLs, conc 0.01 μm): 0; Hoechst 33342 nuclear staining score ([1]; PBLs, conc 0.1 μm): 0; Hoechst 33342 nuclear staining score ([1]; PBLs, conc 1 μm): 0 |
| Nc1ccc(OCn2c(-c3nonc3N)nc3ccccc32)cc1 [Example 99] | > 1000 nM | 100 to 1000 nM | > 1000 nM | > 1000 nM | 100 to 1000 nM | 0 | 0 | 0 | 0 | 0 | 0 | 0 | 0 | 1 (1 relating to weak activity comprising less than 70% of the cells) | 0 | 0 | 1 (1 relating to weak activity comprising less than 70% of the cells) | 0 | 0 | 0 | Hoechst 33342 nuclear staining score ([1]; PBLs, conc 0.01 μm): 0; Hoechst 33342 nuclear staining score ([1]; PBLs, conc 0.1 μm): 0; Hoechst 33342 nuclear staining score ([1]; PBLs, conc 1 μm): 0 |
| Nc1nonc1-c1nc2ccccc2n1COc1ccc(Cl)c(Cl)c1 [Example 92] | 10 to 100 nM | 10 to 100 nM | 10 to 100 nM | 100 to 1000 nM | 10 to 100 nM | 0 | 2 (score 2 relating to strong activity comprising more than 70% of the cells) | 2 (score 2 relating to strong activity comprising more than 70% of the cells) | 0 | 2 (score 2 relating to strong activity comprising more than 70% of the cells) | 2 (score 2 relating to strong activity comprising more than 70% of the cells) | 0 | 2 (score 2 relating to strong activity comprising more than 70% of the cells) | 2 (score 2 relating to strong activity comprising more than 70% of the cells) | 0 | 2 (score 2 relating to strong activity comprising more than 70% of the cells) | 2 (score 2 relating to strong activity comprising more than 70% of the cells) | 0 | 2 (score 2 relating to strong activity comprising more than 70% of the cells) | 2 (score 2 relating to strong activity comprising more than 70% of the cells) | Hoechst 33342 nuclear staining score ([1]; PBLs, conc 0.01 μm): 0; Hoechst 33342 nuclear staining score ([1]; PBLs, conc 0.1 μm): 0; Hoechst 33342 nuclear staining score ([1]; PBLs, conc 1 μm): 0 |
